What was measured:
Type in all cases: in vivo
[1] = tested on: Johnsongrass (Sorghum halepense, SORHA); test: Pre-emerge greenhouse herbicide test, phytotoxicity rating; details: 14 days after application, rating scale 0-100
How it was run: (§1)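 Visual 0–100 injury rating (100 = all plants dead) taken 14 days after treatment. Rates of 125–1000 g ai/ha in acetone, 187 l/ha, were sprayed onto soil one day post-sowing; pots were surface-watered to incorporate, then bottom-watered.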

[2] = tested on: ivyleaf morningglory (Ipomoea hederacea, IPOHE); test: as above; details: 14 days after application, rating scale 0-100
How it was run: as §1

[3] = tested on: velvetleaf (Abutilon theophrasti, ABUTH); test: as above; details: 14 days after application, rating scale 0-100
How it was run: as §1

[4] = tested on: common ragweed (Ambrosia artemisiifolia L., AMBEL); test: as above; details: 14 days after application, rating scale 0-100
How it was run: as §1

[5] = tested on: redroot pigweed (Amaranthus retroflexus, AMARE); test: as above; details: 14 days after application, rating scale 0-100
How it was run: as §1

[6] = tested on: green foxtail (Setaria viridis, SETVI); test: as above; details: 14 days after application, rating scale 0-100
How it was run: as §1

[7] = tested on: barnyardgrass (Echinochloa crusgalli, ECHCG); test: as above; details: 14 days after application, rating scale 0-100
How it was run: as §1

[8] = tested on: sicklepod (Cassia obtusifolia, CASOB); test: as above; details: 14 days after application, rating scale 0-100
How it was run: as §1

[9] = tested on: large crabgrass (Digitaria sanguinalis, DIGSA); test: as above; details: 14 days after application, rating scale 0-100
How it was run: as §1

[10] = tested on: lambsquarters (Chenopodium album, CHEAL); test: as above; details: 14 days after application, rating scale 0-100
How it was run: as §1

[11] = tested on: common ragweed (Ambrosia artemisiifolia L., AMBEL); test: Post-emerge greenhouse herbicide test, phytotoxicity rating; details: 14 days after application, scale 0-100
How it was run: (§2)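 Scores use a 0 (no damage) to 100 (complete kill) scale, taken 14 days after a foliar spray. Acetone solutions with 0.25% v/v non-ionic surfactant were applied by track sprayer at 187 l/ha and 63-1000 g ai/ha to bottom-watered 2-3 leaf plants.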

[12] = tested on: soybean (Glycine max L., var. Pella 86, SOY); test: Pre-emerge greenhouse test, crop damage rating; design: key to SOY crop damage rating: 0 = no damage, 100 = complete death of all plants; details: 14 days after application, rating scale 0-100
How it was run: as §1

[13] = tested on: upland rice (Oryza sp., var.Tebonnet, RICE); test: Pre-emerge greenhouse test, crop damage rating; details: 14 days after application, rating scale 0-100
How it was run: as §1

[14] = tested on: field corn (Zea mays L., var. Dekalb 535, CORN); test: Pre-emerge greenhouse test, crop damage rating; details: 14 days after application, rating scale 0-100
How it was run: as §1

[15] = tested on: soybean (Glycine max L., var. Pella 86, SOY); test: Post-emerge greenhouse test, crop damage rating; design: key to crop damage rating SOY: 0-100 scale: 0 = no damage, 100 = complete death of all plants; details: 14 days after application, scale 0-100
How it was run: as §2

[16] = tested on: upland rice (Oryza sp., var.Tebonnet, RICE); test: Post-emerge greenhouse test, crop damage rating; details: 14 days after application, scale 0-100
How it was run: as §2

[17] = tested on: field corn (Zea mays L., var. Dekalb 535, CORN); test: Post-emerge greenhouse test, crop damage rating; details: 14 days after application, scale 0-100
How it was run: as §2

[18] = tested on: Johnsongrass (Sorghum halepense, SORHA); test: Post-emerge greenhouse herbicide test, phytotoxicity rating; details: 14 days after application, scale 0-100
How it was run: as §2

[19] = tested on: ivyleaf morningglory (Ipomoea hederacea, IPOHE); test: as above; details: 14 days after application, scale 0-100
How it was run: as §2

[20] = tested on: velvetleaf (Abutilon theophrasti, ABUTH); test: as above; details: 14 days after application, scale 0-100
How it was run: as §2

[21] = tested on: redroot pigweed (Amaranthus retroflexus, AMARE); test: as above; details: 14 days after application, scale 0-100
How it was run: as §2

[22] = tested on: green foxtail (Setaria viridis, SETVI); test: as above; details: 14 days after application, scale 0-100
How it was run: as §2

[23] = tested on: barnyardgrass (Echinochloa crusgalli, ECHCG); test: as above; details: 14 days after application, scale 0-100
How it was run: as §2

[24] = tested on: large crabgrass (Digitaria sanguinalis, DIGSA); test: as above; details: 14 days after application, scale 0-100
How it was run: as §2

[25] = tested on: lambsquarters (Chenopodium album, CHEAL); test: as above; details: 14 days after application, scale 0-100
How it was run: as §2

Nc1ccc(Oc2cc(-n3c(=O)n4n(c3=S)CCCC4)c(F)cc2Cl)nc1 [Compound 8-24]
0: IPOHE phytotoxicity rating ([2]; Rate 125 g al/ha) | ECHCG phytotoxicity rating ([7]; Rate 125 g al/ha) | DIGSA phytotoxicity rating ([9]; Rate 125 g al/ha) | phytotoxicity rating AMBEL ([11]; rate 63 g ai/ha) | SOY crop damage rating ([12]; Rate 125 g al/ha) | RICE crop damage rating ([13]; Rate 125 g al/ha) | CORN crop damage rating ([14]; Rate 125 g al/ha) | CORN crop damage rating ([14]; Rate 500 g al/ha) | crop damage rating SOY ([15]; rate 63 g ai/ha) | phytotoxicity rating SORHA ([18]; rate 63 g ai/ha) | phytotoxicity rating SETVI ([22]; rate 63 g ai/ha) | phytotoxicity rating ECHCG ([23]; rate 500 g ai/ha)
10: crop damage rating CORN ([17]; rate 63 g ai/ha) | crop damage rating CORN ([17]; rate 500 g ai/ha) | phytotoxicity rating ECHCG ([23]; rate 63 g ai/ha)
50: CASOB phytotoxicity rating ([8]; Rate 500 g al/ha) | phytotoxicity rating AMBEL ([11]; rate 500 g ai/ha) | phytotoxicity rating SORHA ([18]; rate 500 g ai/ha) | phytotoxicity rating DIGSA ([24]; rate 63 g ai/ha) | phytotoxicity rating CHEAL ([25]; rate 63 g ai/ha)
100: ABUTH phytotoxicity rating ([3]; Rate 125 g al/ha) | ABUTH phytotoxicity rating ([3]; Rate 500 g al/ha) | AMBEL phytotoxicity rating ([4]; Rate 500 g al/ha) | AMARE phytotoxicity rating ([5]; Rate 500 g al/ha) | CHEAL phytotoxicity rating ([10]; Rate 500 g al/ha) | phytotoxicity rating ABUTH ([20]; rate 500 g ai/ha) | phytotoxicity rating AMARE ([21]; rate 63 g ai/ha) | phytotoxicity rating AMARE ([21]; rate 500 g ai/ha)
80: AMBEL phytotoxicity rating ([4]; Rate 125 g al/ha) | SETVI phytotoxicity rating ([6]; Rate 500 g al/ha) | phytotoxicity rating IPOHE ([19]; rate 500 g ai/ha) | phytotoxicity rating CHEAL ([25]; rate 500 g ai/ha)
30: SETVI phytotoxicity rating ([6]; Rate 125 g al/ha) | DIGSA phytotoxicity rating ([9]; Rate 500 g al/ha) | SOY crop damage rating ([12]; Rate 500 g al/ha) | crop damage rating RICE ([16]; rate 500 g ai/ha)
70: IPOHE phytotoxicity rating ([2]; Rate 500 g al/ha) | CASOB phytotoxicity rating ([8]; Rate 125 g al/ha) | phytotoxicity rating IPOHE ([19]; rate 63 g ai/ha)
95: AMARE phytotoxicity rating ([5]; Rate 125 g al/ha) | phytotoxicity rating ABUTH ([20]; rate 63 g ai/ha)
20: SORHA phytotoxicity rating ([1]; Rate 125 g al/ha) | SORHA phytotoxicity rating ([1]; Rate 500 g al/ha) | RICE crop damage rating ([13]; Rate 500 g al/ha) | crop damage rating RICE ([16]; rate 63 g ai/ha) | phytotoxicity rating SETVI ([22]; rate 500 g ai/ha) | phytotoxicity rating DIGSA ([24]; rate 500 g ai/ha)
40: ECHCG phytotoxicity rating ([7]; Rate 500 g al/ha) | crop damage rating SOY ([15]; rate 500 g ai/ha)
99: CHEAL phytotoxicity rating ([10]; Rate 125 g al/ha)

Cc1nsc(Oc2cc(-n3c(=O)n4n(c3=S)CCCC4)c(F)cc2Cl)c1[N+](=O)[O-] [Compound 8-35]
40: phytotoxicity rating IPOHE ([19]; rate 63 g ai/ha) | phytotoxicity rating SETVI ([22]; rate 63 g ai/ha)
100: IPOHE phytotoxicity rating ([2]; Rate 500 g al/ha) | ABUTH phytotoxicity rating ([3]; Rate 125 g al/ha) | ABUTH phytotoxicity rating ([3]; Rate 500 g al/ha) | AMARE phytotoxicity rating ([5]; Rate 125 g al/ha) | AMARE phytotoxicity rating ([5]; Rate 500 g al/ha) | SETVI phytotoxicity rating ([6]; Rate 500 g al/ha) | CASOB phytotoxicity rating ([8]; Rate 500 g al/ha) | CHEAL phytotoxicity rating ([10]; Rate 125 g al/ha) | CHEAL phytotoxicity rating ([10]; Rate 500 g al/ha) | phytotoxicity rating ABUTH ([20]; rate 63 g ai/ha) | phytotoxicity rating ABUTH ([20]; rate 500 g ai/ha) | phytotoxicity rating AMARE ([21]; rate 500 g ai/ha)
70: RICE crop damage rating ([13]; Rate 500 g al/ha)
50: IPOHE phytotoxicity rating ([2]; Rate 125 g al/ha) | AMBEL phytotoxicity rating ([4]; Rate 125 g al/ha) | crop damage rating RICE ([16]; rate 500 g ai/ha)
90: SORHA phytotoxicity rating ([1]; Rate 500 g al/ha) | AMBEL phytotoxicity rating ([4]; Rate 500 g al/ha) | SETVI phytotoxicity rating ([6]; Rate 125 g al/ha) | ECHCG phytotoxicity rating ([7]; Rate 500 g al/ha) | crop damage rating SOY ([15]; rate 500 g ai/ha)
99: phytotoxicity rating CHEAL ([25]; rate 500 g ai/ha)
20: SORHA phytotoxicity rating ([1]; Rate 125 g al/ha) | crop damage rating SOY ([15]; rate 63 g ai/ha) | crop damage rating RICE ([16]; rate 63 g ai/ha)
60: phytotoxicity rating SETVI ([22]; rate 500 g ai/ha)
30: CASOB phytotoxicity rating ([8]; Rate 125 g al/ha) | SOY crop damage rating ([12]; Rate 500 g al/ha) | CORN crop damage rating ([14]; Rate 125 g al/ha) | CORN crop damage rating ([14]; Rate 500 g al/ha)
80: DIGSA phytotoxicity rating ([9]; Rate 500 g al/ha) | phytotoxicity rating SORHA ([18]; rate 500 g ai/ha) | phytotoxicity rating ECHCG ([23]; rate 500 g ai/ha) | phytotoxicity rating CHEAL ([25]; rate 63 g ai/ha)
95: phytotoxicity rating IPOHE ([19]; rate 500 g ai/ha) | phytotoxicity rating AMARE ([21]; rate 63 g ai/ha)
10: ECHCG phytotoxicity rating ([7]; Rate 125 g al/ha) | phytotoxicity rating AMBEL ([11]; rate 63 g ai/ha) | phytotoxicity rating AMBEL ([11]; rate 500 g ai/ha) | crop damage rating CORN ([17]; rate 63 g ai/ha) | crop damage rating CORN ([17]; rate 500 g ai/ha) | phytotoxicity rating DIGSA ([24]; rate 500 g ai/ha)
0: DIGSA phytotoxicity rating ([9]; Rate 125 g al/ha) | SOY crop damage rating ([12]; Rate 125 g al/ha) | phytotoxicity rating ECHCG ([23]; rate 63 g ai/ha) | phytotoxicity rating DIGSA ([24]; rate 63 g ai/ha)
